Data on 22 molecules can be found in BindingDB's records for doi:10.1021/jm991125l (Institut Curie, 2000).

A short description of this assay: Effective concentration required to achieve 50% inhibition of HIV-1 LAI replication in human T4 lymphoblastoid CEM-SS cells.

Where only a bound is given, the exact number is not on record here.

Consider `CCc1c(Sc2cc(C)cc(C)c2)n(CCCCC(=O)NCCCCCCCCCCCCNc2ccn(C3CCC(CO)O3)c(=O)n2)c(=O)[nH]c1=O` (configuration not stated), for which the EC50 (as a rule, the concentration giving half of the maximal effect) stood at 0.43 µM.
Molecule `CCc1c(Sc2cc(C)cc(C)c2)n(CCCCC(=O)OC)c(=O)[nH]c1=O` came in with a concentration for a half-maximal effect (EC50) of 0.025 µM.
On to `CCc1c(C)[nH]c(=O)c(NC(=O)CCCC(=O)O)c1Cc1cc(C)cc(C)c1`, for which the response was half-maximal at 4.5 µM (EC50).
In the case of `CCc1c(C)[nH]c(=O)c(NC(=O)CNC(=O)CNC(=O)OC(C)(C)C)c1Cc1cc(C)cc(C)c1` it was 3.2 µM; in that of `COC(=O)CCCNC(=O)CCc1cn(C2CC(N=[N+]=[N-])C(CO)O2)c(=O)[nH]c1=O` (configuration not stated), above 100 µM.
`CCc1c(C)[nH]c(=O)c(NC(=O)CCCCCCCCCN)c1Cc1cc(C)cc(C)c1` had an EC50 of 58 µM. This counts as double-digit micromolar.
In the case of `CCc1c(C)[nH]c(=O)c(NC(=O)CCCCCCCCC(=O)O)c1Cc1cc(C)cc(C)c1` it was 70 µM.
The same measure for `CCc1c(C)[nH]c(=O)c(NC(=O)CNC(=O)CN)c1Cc1cc(C)cc(C)c1`: 0.72 µM; for `CCc1c(Sc2cc(C)cc(C)c2)n(CCCCC(=O)NCCCCNC(=O)CCc2cn(C3CC(N=[N+]=[N-])C(CO)O3)c(=O)[nH]c2=O)c(=O)[nH]c1=O` (configuration not stated): 3.3 µM; for `CCc1c(C)[nH]c(=O)c(NC(=O)CCCC(=O)OC)c1Cc1cc(C)cc(C)c1`: 24 µM.
As for `COC(=O)CCc1cn(C2CC(N=[N+]=[N-])C(CO)O2)c(=O)[nH]c1=O` (configuration not stated), the EC50 was above 100 µM.
In the case of `CCc1c(C)[nH]c(=O)c(NC(=O)CCCCCCCCCNC(=O)OC(C)(C)C)c1Cc1cc(C)cc(C)c1` it was above 10 µM; in that of `CCc1c(Sc2cc(C)cc(C)c2)n(CCCCC(=O)NCCCCCCCCCCNC(=O)CCn2c(=O)c(C)cn(C3CC(N=[N+]=[N-])C(CO)O3)c2=O)c(=O)[nH]c1=O` (configuration not stated), 2.8 µM.
In the case of `CCc1c(Sc2cc(C)cc(C)c2)n(CCCCC(=O)NCCCCCCCCCCNC(=O)CCc2cn(C3CC(N=[N+]=[N-])C(CO)O3)c(=O)[nH]c2=O)c(=O)[nH]c1=O` (configuration not stated), the response was half-maximal at 1.7 µM (EC50).
`CCOC(=O)CCn1c(=O)c(C)cn(C2CC(N=[N+]=[N-])C(CO)O2)c1=O` (configuration not stated) yielded an EC50 of 0.8 µM.
In turn, `[N-]=[N+]=NC1CC(n2cc(CCC(=O)NCCCCN)c(=O)[nH]c2=O)OC1CO` (configuration not stated) showed an EC50 above 100 µM.
`NCCCCCCCCCCCCNc1ccn(C2CCC(CO)O2)c(=O)n1` (configuration not stated) registered a half-maximal effective concentration (EC50) of 7.8 µM. That is a single-digit micromolar value.
The same measure for `CCc1c(C)[nH]c(=O)c(NC(=O)CCCCCCCCC(=O)OC)c1Cc1cc(C)cc(C)c1`: above 10 µM; for `[N-]=[N+]=NC1CC(n2cc(CCC(=O)NCCCCCCCCCCN)c(=O)[nH]c2=O)OC1CO` (configuration not stated): 20 µM; for `Cc1cn([C@H]2C[C@H](N=[N+]=[N-])[C@@H](CO)O2)c(=O)[nH]c1=O` [1-((2R,4S,5S)-4-Azido-5-hydroxymethyl-tetrahydro-furan-2-yl)-5-methyl-1H-pyrimidine-2,4-dione]: 0.002 µM.
`CCc1c(C)[nH]c(=O)c(N)c1Cc1cc(C)cc(C)c1` [3-amino-4-[(3,5-dimethylphenyl)methyl]-5-ethyl-6-methyl-1,2-dihydropyridin-2-one] came in with an EC50 of 0.017 µM.
For the molecule `Nc1ccn([C@H]2CC[C@@H](CO)O2)c(=O)n1` [Dideoxycytidine], the concentration for a half-maximal effect (EC50) amounted to 0.031 µM.
